Consider eight molecules from ChEMBL document CHEMBL1155461, “Emerging targets in osteoporosis disease modification” (J Med Chem, 2010).

≈ marks a conversion by molar mass, not a printed value.

One may read the bioavailability as dose-corrected exposure relative to a reference, in per cent. What is called clearance is the volume of plasma or blood freed of the substance per unit of time. Usually inhibition stands for the drop in the measured response relative to a control, in per cent. In general, EC50 refers to the midpoint of the concentration-response curve. A word on the IC50: it is the concentration that inhibits the measured activity by half. In general, solubility refers to the concentration that dissolves in the medium under given conditions. In general, half-life refers to how long it takes for the measured level to halve. Higher therefore signals slow decline. The Ki is the equilibrium dissociation constant of an inhibitor or competing ligand from its target. Higher therefore signals a looser hold on the target.

Series [1] is described as follows: Bioavailability in dog. Format: ADME, organism-based, Canis lupus familiaris. As to conditions: in vivo.
Series [2] can be described thus: Clearance in dog. Type of series: ADME, organism-based, Canis lupus familiaris. The conditions noted are these: in vivo.
The species entered for series [3] is Homo sapiens. Nature of the series: Plasma protein binding in human. The conditions noted are these: read-out: PPB (converted).
The nature of series [4]: Induction of osteogenesis in mouse calvarial cells assessed as increase in total bone area at 10 nM. Type of series: functional, Calvarial cell.
Series [5] is described as follows: Selectivity for cathepsin K over cathepsin L.
In series [6] the test system is Osteoclast. Nature of the series: Inhibition of bone resorption in human osteoclast assessed as decrease in CTX-1 level at 100 uM. Format: functional.
A short description of series [7]: Selectivity for cathepsin K over cathepsin S.
Series [8] can be described thus: Selectivity for cathepsin K over cathepsin B.
In series [9] the test system is Homo sapiens. Description: Antiosteoporotic activity in men with osteoporosis assessed as decrease in bone resorption-associated serum CTX-1 level at 250 mg/kg after 10 to 14 days. Format: functional, organism-based. More on the design: dose 250 mg/kg.
Series [10] addresses Parathyroid hormone/parathyroid hormone-related peptide receptor (Homo sapiens, UniProt Q03431).
Series [11] concerns the target Vitronectin (Homo sapiens) (UniProt P04004). Nature of the series: Inhibition of vitronectin.
The nature of series [12]: Clearance in rat. Type of series: ADME, organism-based. The conditions noted are these: in vivo.
Series [13] deals with Integrin alpha-IIb/beta-3 (Homo sapiens) (UniProt P05106+P08514). Description: Inhibition of integrin alpha2Bbeta3. Type of series: protein-complex assay.
Series [14] has as its target Integrin alpha-V/beta-3 (Homo sapiens, UniProt P05106+P06756).
A short description of series [15]: Aqueous solubility of the compound. The conditions noted are these: aqueous medium. Format: physicochemical.
The nature of series [16]: Half life in rat. Format: ADME, organism-based. As to conditions: in vivo.
The target in series [17] is T1, Extracellular calcium-sensing receptor (Homo sapiens, UniProt P41180).
T1 sequence (P41180 whole entry): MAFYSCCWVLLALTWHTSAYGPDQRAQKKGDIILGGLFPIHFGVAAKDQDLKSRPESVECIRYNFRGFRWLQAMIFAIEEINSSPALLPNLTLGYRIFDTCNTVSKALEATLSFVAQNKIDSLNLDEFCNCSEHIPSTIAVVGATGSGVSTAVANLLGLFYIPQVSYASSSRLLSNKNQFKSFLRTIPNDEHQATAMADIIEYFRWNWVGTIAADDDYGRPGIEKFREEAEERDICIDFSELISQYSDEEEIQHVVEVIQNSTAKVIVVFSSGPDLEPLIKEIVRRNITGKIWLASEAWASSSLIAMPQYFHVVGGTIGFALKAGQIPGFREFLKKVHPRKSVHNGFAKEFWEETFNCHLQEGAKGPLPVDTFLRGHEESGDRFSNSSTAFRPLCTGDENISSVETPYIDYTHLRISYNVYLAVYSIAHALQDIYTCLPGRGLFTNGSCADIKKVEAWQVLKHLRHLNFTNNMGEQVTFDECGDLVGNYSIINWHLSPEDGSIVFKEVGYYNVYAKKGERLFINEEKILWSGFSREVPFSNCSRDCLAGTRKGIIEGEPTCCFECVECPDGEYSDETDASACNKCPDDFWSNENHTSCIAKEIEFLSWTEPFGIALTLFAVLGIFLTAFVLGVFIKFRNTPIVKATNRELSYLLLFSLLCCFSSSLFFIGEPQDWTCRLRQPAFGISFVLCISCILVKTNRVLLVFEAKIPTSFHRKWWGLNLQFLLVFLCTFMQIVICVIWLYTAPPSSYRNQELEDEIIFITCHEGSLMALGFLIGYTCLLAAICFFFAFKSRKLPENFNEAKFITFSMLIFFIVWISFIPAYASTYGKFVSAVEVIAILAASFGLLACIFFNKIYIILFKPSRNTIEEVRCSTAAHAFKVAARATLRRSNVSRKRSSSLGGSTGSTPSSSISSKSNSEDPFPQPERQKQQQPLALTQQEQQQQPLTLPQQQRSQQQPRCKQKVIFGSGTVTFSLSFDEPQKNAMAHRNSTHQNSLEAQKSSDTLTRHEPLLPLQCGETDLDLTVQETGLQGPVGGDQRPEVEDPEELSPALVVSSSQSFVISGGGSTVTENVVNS

A short description of series [18]: Oral bioavailability in rat. Format: ADME, organism-based. The conditions noted are these: in vivo.
For series [19], the system named is Rattus norvegicus. Nature of the series: Induction of bone formation in ovariectomized rat assessed as trabecular bone mineral content at 3 ug/kg, sc BID for 11 weeks (RVb = 200 mg/cm3). Type of series: functional, Trabecula.
Series [20] deals with Mus musculus. Nature of the series: Induction of bone formation in mouse assessed as increase in bone mineral content at 300 ug/kg administered into dorsal muscle pouch relative to control. Format: functional, Muscle tissue.
The target of series [21] is Prostaglandin E2 receptor EP3 subtype (Mus musculus, UniProt P30557). Nature of the series: Binding affinity to mouse EP3 receptor by competitive binding assay.
For series [22], the target named is Prostaglandin E2 receptor EP4 subtype (Mus musculus, UniProt P32240). Description: Agonist activity at mouse EP4 receptor expressed in CHO cells assessed as cAMP production. Format: functional, cell-based. On the technique in general: Cyclic AMP is a second messenger, typically raised through Gs and lowered through Gi signalling.
Series [23] concerns Homo sapiens. Description: Antiosteoporotic activity in patient with osteoporosis assessed as increase in lumbar spine bone mineral density at 50 mg/kg, po administered weekly for 24 months relative to placebo control. Format: functional.
Series [24] has as its system Homo sapiens. Nature of the series: Antiosteoporotic activity in patient with osteoporosis assessed as increase in hip bone mineral density at 50 mg/kg, po administered weekly for 24 months relative to placebo control. Format: functional, Bone of hip region.
A short description of series [25]: Selectivity for cathepsin K over cathepsin F.
A short description of series [26]: Selectivity for cathepsin K over cathepsin H.
Series [27] in a line: Selectivity for cathepsin K over cathepsin V.
Series [28] in a line: Bioavailability in rat. Type of series: ADME, organism-based. The conditions noted are these: in vivo.

Chain of Vitronectin (Homo sapiens) (P04004 whole entry): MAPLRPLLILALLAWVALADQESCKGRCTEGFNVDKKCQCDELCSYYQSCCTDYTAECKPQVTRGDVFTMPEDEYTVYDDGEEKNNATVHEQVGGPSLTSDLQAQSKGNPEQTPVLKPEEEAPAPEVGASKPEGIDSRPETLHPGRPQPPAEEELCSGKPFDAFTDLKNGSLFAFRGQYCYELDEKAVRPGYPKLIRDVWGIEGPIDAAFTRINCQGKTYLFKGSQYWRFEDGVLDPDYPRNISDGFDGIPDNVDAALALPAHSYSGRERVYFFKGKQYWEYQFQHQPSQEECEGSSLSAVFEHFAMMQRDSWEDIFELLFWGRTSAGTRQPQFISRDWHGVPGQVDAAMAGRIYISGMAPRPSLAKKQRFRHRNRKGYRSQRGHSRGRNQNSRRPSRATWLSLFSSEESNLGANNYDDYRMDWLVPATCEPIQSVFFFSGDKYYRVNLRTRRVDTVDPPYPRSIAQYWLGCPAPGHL
Chain of Parathyroid hormone/parathyroid hormone-related peptide receptor (Q03431 whole entry): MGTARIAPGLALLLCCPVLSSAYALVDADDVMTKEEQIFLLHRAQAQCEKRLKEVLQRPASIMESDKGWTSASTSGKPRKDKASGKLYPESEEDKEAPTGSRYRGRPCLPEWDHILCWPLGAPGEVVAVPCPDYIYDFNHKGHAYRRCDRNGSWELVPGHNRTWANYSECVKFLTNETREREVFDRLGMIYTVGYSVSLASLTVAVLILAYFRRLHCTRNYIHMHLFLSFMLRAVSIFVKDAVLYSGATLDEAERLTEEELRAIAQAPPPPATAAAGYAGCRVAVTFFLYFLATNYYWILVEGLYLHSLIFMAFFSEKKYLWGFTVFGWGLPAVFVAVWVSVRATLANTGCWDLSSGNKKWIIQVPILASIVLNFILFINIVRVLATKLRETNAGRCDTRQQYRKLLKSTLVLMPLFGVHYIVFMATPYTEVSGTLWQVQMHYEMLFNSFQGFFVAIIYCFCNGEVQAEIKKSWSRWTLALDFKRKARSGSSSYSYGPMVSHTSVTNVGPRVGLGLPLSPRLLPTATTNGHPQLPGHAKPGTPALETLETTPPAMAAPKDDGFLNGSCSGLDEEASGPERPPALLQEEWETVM
Chain of Prostaglandin E2 receptor EP4 subtype (P32240 whole entry): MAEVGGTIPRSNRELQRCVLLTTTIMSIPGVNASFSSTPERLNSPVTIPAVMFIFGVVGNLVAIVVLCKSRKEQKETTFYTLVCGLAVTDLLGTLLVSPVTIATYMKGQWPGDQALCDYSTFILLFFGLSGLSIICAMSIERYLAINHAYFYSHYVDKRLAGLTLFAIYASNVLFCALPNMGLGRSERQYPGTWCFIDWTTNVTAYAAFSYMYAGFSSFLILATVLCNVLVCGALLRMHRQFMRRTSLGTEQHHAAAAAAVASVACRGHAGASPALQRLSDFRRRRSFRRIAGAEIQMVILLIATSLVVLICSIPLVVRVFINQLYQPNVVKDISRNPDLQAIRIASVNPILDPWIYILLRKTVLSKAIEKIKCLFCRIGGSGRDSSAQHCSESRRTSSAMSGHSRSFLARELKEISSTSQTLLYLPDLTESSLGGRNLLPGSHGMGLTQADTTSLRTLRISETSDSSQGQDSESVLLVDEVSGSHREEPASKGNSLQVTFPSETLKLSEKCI
Chain of Prostaglandin E2 receptor EP3 subtype (P30557 whole entry): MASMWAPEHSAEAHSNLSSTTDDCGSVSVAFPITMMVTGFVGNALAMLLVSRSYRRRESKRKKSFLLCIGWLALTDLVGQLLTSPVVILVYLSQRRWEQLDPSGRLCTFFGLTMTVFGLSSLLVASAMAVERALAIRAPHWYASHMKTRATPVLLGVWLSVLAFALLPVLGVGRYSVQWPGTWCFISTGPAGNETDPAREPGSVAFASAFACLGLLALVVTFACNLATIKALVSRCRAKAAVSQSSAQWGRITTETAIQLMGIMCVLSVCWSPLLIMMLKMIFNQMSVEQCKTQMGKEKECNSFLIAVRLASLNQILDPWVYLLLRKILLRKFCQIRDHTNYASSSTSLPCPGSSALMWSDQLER
Chain of Integrin alpha-V/beta-3 (P05106 27-788 limits assumed): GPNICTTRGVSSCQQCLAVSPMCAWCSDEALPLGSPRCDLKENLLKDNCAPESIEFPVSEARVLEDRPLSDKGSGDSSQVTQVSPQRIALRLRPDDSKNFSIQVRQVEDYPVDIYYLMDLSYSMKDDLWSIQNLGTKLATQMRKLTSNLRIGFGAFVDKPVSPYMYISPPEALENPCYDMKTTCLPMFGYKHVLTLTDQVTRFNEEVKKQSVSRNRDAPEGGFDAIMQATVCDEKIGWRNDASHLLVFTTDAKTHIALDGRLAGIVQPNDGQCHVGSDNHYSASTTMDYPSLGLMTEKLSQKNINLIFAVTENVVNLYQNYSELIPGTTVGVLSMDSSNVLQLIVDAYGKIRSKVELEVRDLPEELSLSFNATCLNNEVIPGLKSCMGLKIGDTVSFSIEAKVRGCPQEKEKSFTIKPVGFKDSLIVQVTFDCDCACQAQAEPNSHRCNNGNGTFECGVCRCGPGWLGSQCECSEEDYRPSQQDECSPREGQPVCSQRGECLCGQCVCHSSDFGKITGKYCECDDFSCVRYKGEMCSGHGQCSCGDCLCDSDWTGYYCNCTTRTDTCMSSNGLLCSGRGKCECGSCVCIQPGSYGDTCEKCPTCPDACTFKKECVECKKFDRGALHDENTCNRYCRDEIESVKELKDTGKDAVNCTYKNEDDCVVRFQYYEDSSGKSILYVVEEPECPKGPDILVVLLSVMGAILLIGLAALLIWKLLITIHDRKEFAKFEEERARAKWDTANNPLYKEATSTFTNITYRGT
Chain of Integrin alpha-V/beta-3 (P06756 31-889 limits assumed): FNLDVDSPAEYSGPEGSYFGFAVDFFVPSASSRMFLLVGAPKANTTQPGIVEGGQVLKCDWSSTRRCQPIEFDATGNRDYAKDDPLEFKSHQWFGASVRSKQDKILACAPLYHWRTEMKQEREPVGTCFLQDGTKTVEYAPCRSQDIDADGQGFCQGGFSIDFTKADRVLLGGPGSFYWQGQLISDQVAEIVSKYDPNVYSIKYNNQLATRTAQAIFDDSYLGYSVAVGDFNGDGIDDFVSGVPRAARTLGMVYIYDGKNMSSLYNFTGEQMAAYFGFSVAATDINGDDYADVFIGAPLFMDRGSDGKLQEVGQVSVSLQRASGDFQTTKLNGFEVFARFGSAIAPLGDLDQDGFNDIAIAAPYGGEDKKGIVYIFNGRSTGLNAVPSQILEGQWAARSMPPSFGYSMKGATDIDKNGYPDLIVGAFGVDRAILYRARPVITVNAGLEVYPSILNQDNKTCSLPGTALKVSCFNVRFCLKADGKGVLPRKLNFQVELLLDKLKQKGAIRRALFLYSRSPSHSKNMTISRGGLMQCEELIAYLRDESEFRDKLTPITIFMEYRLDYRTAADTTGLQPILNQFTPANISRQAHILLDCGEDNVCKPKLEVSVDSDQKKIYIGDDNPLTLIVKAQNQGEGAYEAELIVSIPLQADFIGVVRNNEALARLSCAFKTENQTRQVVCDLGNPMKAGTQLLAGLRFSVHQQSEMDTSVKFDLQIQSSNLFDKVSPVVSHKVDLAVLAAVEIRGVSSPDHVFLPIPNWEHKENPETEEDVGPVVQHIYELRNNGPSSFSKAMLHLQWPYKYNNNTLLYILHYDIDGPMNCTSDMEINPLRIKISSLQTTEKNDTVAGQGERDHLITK
Chain of Integrin alpha-V/beta-3 (P06756 891-1048 limits assumed): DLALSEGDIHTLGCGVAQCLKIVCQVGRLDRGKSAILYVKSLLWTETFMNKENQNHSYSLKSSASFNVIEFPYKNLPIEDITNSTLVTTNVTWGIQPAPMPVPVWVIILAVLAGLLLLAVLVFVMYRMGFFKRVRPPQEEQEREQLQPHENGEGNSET

`COc1ccc([C@@H](CCC[C@H](O)CCc2ccc3c(n2)NCCC3)CC(=O)O)cn1`: the bioavailability in series [1] is 60%. Besides, in series [2], the clearance came out at 2.5 mL/min/kg. Moreover, the fraction unbound in [3] was 0.07.

On to `O=S(=O)(NC1CCNCC1)c1cc(S(=O)(=O)c2ccccc2)ccc1C(F)(F)F`, for which, in series [4], the Activity is on record as 60%.

For `CC(C)C[C@H](NC(=O)c1ccc(C(C)(C)C)cc1)C(=O)N1CC[C@@H]2[C@H]1C(=O)CN2C(=O)c1ccccc1`, the Selectivity ratio in series [5] is over 347; in series [7], over 446; in series [8], over 990. Further, the inhibition at 100 µM in series [6] came out at 75%.

On to `CCCCN1C(=O)C(=C(N)N)C(=O)N(CCCC)C1=O`, for which the half-maximal effective concentration (EC50) in series [9] came out at 1500 nM; in [10], 3200 nM.

Regarding `COc1cc(C(=O)NC[C@H](NS(=O)(=O)c2ccccc2)C(=O)O)ccc1N1CCC(NC2=NCCCN2)CC1`, the figures for the INH in series [11] and in series [13] were 110 nM and 0.44 nM, respectively. Besides, the clearance in [12] stood at 47 mL/min/kg. This molecule displayed a concentration for half-maximal inhibition (IC50) in series [14] of 0.19 nM. Besides, the concentration in solution in [15] (solubility) came to 1300 µg/mL (≈ 2330 µM). The half-life in [16] amounted to 46 min.

As for `Cc1ccc(CC(C)(C)NC[C@@H](O)CO[C@H](C)c2ccccc2[C@@H]2C[C@@H]3C[C@H]2[C@H]2[C@H](C(=O)O)[C@@H]32)cc1F`, the half-maximal inhibitory concentration (IC50) in series [17] turned out to be 25 nM. Besides, in series [18], the bioavailability was found to be 60%.

Regarding `COCc1cccc(C[C@H](O)/C=C/[C@H]2[C@H](O)CC(=O)[C@@H]2CCSCCCC(=O)OC)c1` [RIVENPROST], in [19], the Activity worked out at 378 mg/cm3. Besides, the “fold change (FC)” value in [20] is 3. The same molecule returned a Ki in series [21] of 56 nM. In [22], the concentration giving a half-maximal response (EC50) worked out at 1.6 nM.

On to `CC(C)(F)C[C@H](N[C@@H](c1ccc(-c2ccc(S(C)(=O)=O)cc2)cc1)C(F)(F)F)C(=O)NC1(C#N)CC1` [ODANACATIB], for which the bioavailability in series [1] was at most 100%; in series [28], at most 38%. The figures for the Activity in series [23] and in series [24] were 5.5% and 3.2%, respectively. In addition, the Selectivity ratio was 3980 in series [25]; over 50000 in [26]; 15000 in [5]; 3810 in series [27]; 300 in series [7]; 5170 in [8].
